# Experimental data as given in patent US20180369203A1, “METHODS OF TREATING CANCER BY ADMINISTERING A MEK INHIBITOR IN COMBINATION WITH A PROTEASOME INHIBITOR” (The Jackson Laboratory, priority 2015, published 2018).
# Legend:
# [1] = test system: A2058 cells; test: Amyloid quantitation by ELISA in A2058 cells pre-incubated with ThT; format: cell-based, human; details: 10 μM ThT pre-incubation 6 hr, then inhibitors 24 hr
# Protocol: (§1) FIGS. 5A-Y show MEK and proteasome inhibition provoke protein aggregation and amyloidogenesis. (A-B) WM115 cells treated with 20 nM AZD6244, 100 nM Bortezomib, or both for 24 hr were stained with Lys48-specific ubiquitin antibodies. Arrowheads mark ubiquitin-positive aggregates. Scale bar: 10 μm. Amounts of aggregates per cell were quantitated using ImageJ (median, n≥100, ANOVA). (C-F) Following transfection with polyQ79 plasmids alone or with both polyQ79 and HSF1^S326D plasmids for one day, HEK293T cells were treated with inhibitors as described in (A-B). Cells were either analyzed for aggregate size or stained with 10 μM ThT. (G) Treated tumor cell lines were stained with 10 μM ThT. Geometric means were used to calculate fold changes in ThT fluorescence intensity and the log 2(FC) values were presented as a heat map. […] Following treatments, AOs were quantitated by ELISA using A11 antibodies (mean±SD, n=3, ANOVA). (I) Intrinsic AOs were detected in human tumor cell lines (mean±SD, n=3, ANOVA). […] Amyloids were quantitated by ELISA (mean±SD, n=3, Student's t-test). […] AF formation was monitored by ThT binding (mean±SD, n=3, ANOVA). […] Amyloids were quantitated (mean±SD, n=3, Student's t-test). […] Viable cells were quantitated by CellTiter® blue (mean±SD, n=6, Student's t-test). […] Viable cells were quantitated (mean±SD, n=6, ANOVA). […]
# To quantitate amyloid fibrils, detergent-insoluble proteins were extracted. […]
# [2] = test system: A2058 cells; test: Viable A2058 cells by CellTiter Blue with amyloid blockers plus inhibitors; format: cell-based, human; details: 10 μM ThT pre-incubation 6 hr, then inhibitors 24 hr
# Protocol: as §1
# This figure is related to FIG. 5. […] (C) Quantitation of protein aggregate size. […]
compound,measurement,setting,value
"Cc1ccc2c(c1)sc(-c1ccc(N(C)C)cc1)[n+]2C.[Cl-] [ThT, Thioflavin T]",amyloid induction by inhibitors,[1],suppressed
same,improvement of cellular growth and survival,[2],50%
